Inconclusive results and toxic doses are left out. Rule as the data show it: active = T/C of 150% or more; inactive = T/C below 125%.
Test system: L1210 leukemia ip in BDF1 mice, survival T/C
Assay: NCI In Vivo Anticancer Drug Screen. Data for tumor model L1210 Leukemia (intraperitoneal) in B6D2F1 (BDF1) mice
Conditions: endpoint: mean survival time, higher = longer survival
In short: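 In this screen, tumor-bearing mice given compound are compared to those given vehicle, and their survival values are reported as a treated-to-control quotient.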

[1] = dose: 100.0 mg/kg/injection, schedule: Q04DX002 (ip), vehicle: Klucel (hydroxypropylcellulose) (HPC)
[2] = dose: 200.0 mg/kg/injection, schedule: Q04DX002 (ip), vehicle: Klucel (hydroxypropylcellulose) (HPC)
[3] = dose: 400.0 mg/kg/injection, schedule: Q04DX002 (ip), vehicle: Klucel (hydroxypropylcellulose) (HPC)
[4] = dose: 100.0 mg/kg/injection, schedule: Q01DX001 (ip), vehicle: saline
[5] = dose: 200.0 mg/kg/injection, schedule: Q01DX001 (ip), vehicle: saline
[6] = dose: 400.0 mg/kg/injection, schedule: Q01DX001 (ip), vehicle: saline
[7] = dose: 100.0 mg/kg/injection, schedule: Q01DX009 (ip), vehicle: Klucel (hydroxypropylcellulose) (HPC)
[8] = dose: 100.0 mg/kg/injection, schedule: Q04DX003 (ip), vehicle: Klucel (hydroxypropylcellulose) (HPC)
[9] = dose: 200.0 mg/kg/injection, schedule: Q01DX009 (ip), vehicle: Klucel (hydroxypropylcellulose) (HPC)
[10] = dose: 200.0 mg/kg/injection, schedule: Q04DX003 (ip), vehicle: Klucel (hydroxypropylcellulose) (HPC)
[11] = dose: 400.0 mg/kg/injection, schedule: Q01DX009 (ip), vehicle: Klucel (hydroxypropylcellulose) (HPC)
[12] = dose: 400.0 mg/kg/injection, schedule: Q04DX003 (ip), vehicle: Klucel (hydroxypropylcellulose) (HPC)
[13] = dose: 50.0 mg/kg/injection, schedule: Q01DX009 (ip), vehicle: saline with Tween-80
[14] = dose: 100.0 mg/kg/injection, schedule: Q04DX003 (ip), vehicle: saline with Tween-80
[15] = dose: 200.0 mg/kg/injection, schedule: Q04DX003 (ip), vehicle: saline with Tween-80
[16] = dose: 100.0 mg/kg/injection, schedule: Q04DX003 (ip), vehicle: saline
[17] = dose: 200.0 mg/kg/injection, schedule: Q04DX003 (ip), vehicle: saline
[18] = dose: 400.0 mg/kg/injection, schedule: Q04DX003 (ip), vehicle: saline

Measured: T/C

CCN(CC)CC(=O)NCC(C)(CCN1CCOCC1)c1cccc2ccccc12 (configuration not stated)
inactive: dose: 100.0 mg/kg/injection, schedule: Q01DX009 (ip), vehicle: saline 105 % of control | dose: 200.0 mg/kg/injection, schedule: Q01DX009 (ip), vehicle: saline 105 % of control | dose: 400.0 mg/kg/injection, schedule: Q01DX009 (ip), vehicle: saline 110 % of control

COc1ccc(/C=C2\C=Nc3ccccc32)cc1
inactive: [1] 94 % of control | [2] 97 % of control | [3] 108 % of control

O=C1c2cscc2C(O)c2c(Cl)sc(Cl)c21 (configuration not stated)
inactive: dose: 100.0 mg/kg/injection, schedule: Q04DX002 (ip), vehicle: saline with Tween-80 101 % of control | dose: 200.0 mg/kg/injection, schedule: Q04DX002 (ip), vehicle: saline with Tween-80 97 % of control | dose: 400.0 mg/kg/injection, schedule: Q04DX002 (ip), vehicle: saline with Tween-80 89 % of control

CC(=O)/C(N=Nc1ccccc1)=C(\C)O
inactive: dose: 50.0 mg/kg/injection, schedule: Q01DX001 (ip), vehicle: carboxymethylcellulose (CMC) 90 % of control | dose: 50.0 mg/kg/injection, schedule: Q01DX009 (sc), vehicle: olive oil, sesame oil, peanut oil 113 % of control | dose: 100.0 mg/kg/injection, schedule: Q01DX001 (ip), vehicle: carboxymethylcellulose (CMC) 97 % of control | dose: 100.0 mg/kg/injection, schedule: Q01DX009 (sc), vehicle: olive oil, sesame oil, peanut oil 113 % of control | dose: 200.0 mg/kg/injection, schedule: Q01DX001 (ip), vehicle: carboxymethylcellulose (CMC) 87 % of control | dose: 200.0 mg/kg/injection, schedule: Q01DX009 (sc), vehicle: olive oil, sesame oil, peanut oil 101 % of control | dose: 400.0 mg/kg/injection, schedule: Q01DX001 (ip), vehicle: carboxymethylcellulose (CMC) 95 % of control

CCCCCCCCCCCCCCCCOC(=O)Cl
inactive: dose: 100.0 mg/kg/injection, schedule: Q01DX001 (ip), vehicle: other 98 % of control | dose: 200.0 mg/kg/injection, schedule: Q01DX001 (ip), vehicle: other 90 % of control | dose: 400.0 mg/kg/injection, schedule: Q01DX001 (ip), vehicle: other 106 % of control

Cc1nnc2sc(C(=O)O)nn12
inactive: [4] 90 % of control | [5] 93 % of control | [6] 96 % of control

COc1cc2c(cc1OC)C1CNC(=O)C1C(c1ccccc1)C2 (configuration not stated)
inactive: dose: 50.0 mg/kg/injection, schedule: Q04DX003 (ip), vehicle: Klucel (hydroxypropylcellulose) (HPC) 103 % of control | [7] 100 % of control | [8] 98 % of control | [9] 102 % of control | [10] 95 % of control | [11] 94 % of control | [12] 98 % of control

CCOC(CN1CCCCC1)c1ccccc1 (configuration not stated)
inactive: dose: 12.5 mg/kg/injection, schedule: Q01DX009 (ip), vehicle: saline with Tween-80 98 % of control | dose: 25.0 mg/kg/injection, schedule: Q01DX009 (ip), vehicle: saline with Tween-80 102 % of control | [13] 100 % of control

O=C1c2cccc3c([N+](=O)[O-])ccc(c23)C(=O)N1CC1CCCO1 (configuration not stated)
inactive: [7] 108 % of control | [9] 110 % of control

CN(C)/C=N\c1ncnc2c1c(C#N)cn2C1OC(CO)C(O)C1O (configuration not stated)
inactive: dose: 6.25 mg/kg/injection, schedule: Q01DX009 (ip), vehicle: saline 92 % of control | dose: 12.5 mg/kg/injection, schedule: Q01DX005 (ip), vehicle: saline 109 % of control | dose: 12.5 mg/kg/injection, schedule: Q01DX009 (ip), vehicle: saline 115 % of control | dose: 25.0 mg/kg/injection, schedule: Q01DX005 (ip), vehicle: saline 101 % of control | dose: 25.0 mg/kg/injection, schedule: Q01DX009 (ip), vehicle: saline 117 % of control

Cc1[nH]c2c(O)ccc(O)c2c1C
inactive: [4] 106 % of control | [5] 97 % of control | [6] 106 % of control

O=[N+]([O-])c1ccc(N/N=C(\Oc2ccccc2)c2ccc([N+](=O)[O-])cc2)cc1
inactive: [14] 94 % of control | [15] 90 % of control

c1ccc(C(c2ccccc2)C2CCCCC2)cc1
inactive: [8] 87 % of control | [10] 90 % of control

CCOC(=O)C(C(=O)Nc1ccccc1)C(=O)OCC
inactive: [7] 99 % of control | [8] 90 % of control | [9] 100 % of control | [10] 93 % of control | [11] 105 % of control | [12] 98 % of control

CCOC(=O)/C(C)=N/Nc1nn[nH]n1
inactive: [16] 99 % of control | [17] 99 % of control | [18] 86 % of control

COC(=O)C1CCC2(C)C=CC(=O)C(C)C2C1 (configuration not stated)
inactive: dose: 75.0 mg/kg/injection, schedule: Q04DX003 (ip), vehicle: saline 100 % of control | dose: 150.0 mg/kg/injection, schedule: Q04DX003 (ip), vehicle: saline 100 % of control | dose: 300.0 mg/kg/injection, schedule: Q04DX003 (ip), vehicle: saline 96 % of control

O=C(O)CCCc1ccc(Br)cc1
inactive: [14] 96 % of control | [15] 92 % of control | dose: 400.0 mg/kg/injection, schedule: Q04DX003 (ip), vehicle: saline with Tween-80 93 % of control

O=C(CCN1CC1)Nc1ccc(Cl)c(Cl)c1
inactive: dose: 20.0 mg/kg/injection, schedule: Q04DX003 (ip), vehicle: Klucel (hydroxypropylcellulose) (HPC) 88 % of control | dose: 25.0 mg/kg/injection, schedule: Q01DX009 (ip), vehicle: Klucel (hydroxypropylcellulose) (HPC) 98 % of control | dose: 40.0 mg/kg/injection, schedule: Q04DX003 (ip), vehicle: Klucel (hydroxypropylcellulose) (HPC) 98 % of control | dose: 50.0 mg/kg/injection, schedule: Q01DX009 (ip), vehicle: Klucel (hydroxypropylcellulose) (HPC) 101 % of control | dose: 80.0 mg/kg/injection, schedule: Q04DX003 (ip), vehicle: Klucel (hydroxypropylcellulose) (HPC) 92 % of control | [8] 86 % of control

O=C1OCCN1CCO
inactive: [16] 97 % of control | [17] 102 % of control | [18] 108 % of control

CC(=O)N(C(C)=O)c1ccc(N=Nc2ccccc2C)cc1C
inactive: [13] 94 % of control | dose: 100.0 mg/kg/injection, schedule: Q01DX009 (ip), vehicle: saline with Tween-80 86 % of control | [16] 94 % of control | dose: 200.0 mg/kg/injection, schedule: Q01DX009 (ip), vehicle: saline with Tween-80 106 % of control | [17] 94 % of control | [18] 92 % of control

COc1cc2nccc3c4ccccc4n(c1=O)c23
inactive: dose: 50.0 mg/kg/injection, schedule: Q01DX001 (ip), vehicle: saline 97 % of control | [4] 101 % of control | [5] 101 % of control | [6] 97 % of control

COC(=O)c1c2ccccc2nc2c1c(C)c(C)c1ccccc12
inactive: [8] 96 % of control | [10] 110 % of control | [12] 101 % of control

Nc1ccc(S(=O)(=O)C(Cl)c2ccccc2)cc1 (configuration not stated)
inactive: [4] 104 % of control | [5] 102 % of control | [6] 104 % of control

COc1c2ccc(-c3ccccc3)oc-2cc(=O)c1C
inactive: [1] 104 % of control | [2] 96 % of control | [3] 93 % of control

O=S(=O)(c1ccc(Nc2nnc(-c3ccccc3)s2)cc1)N1CCCCC1
inactive: [7] 96 % of control | [9] 89 % of control | [11] 86 % of control
